Values of other authors as cited in patent publication US20050026902A1, “Methods and compositions for the treatment or prevention of human immunodeficiency virus and related conditions using cyclooxygenase-2 selective inhibitors and antiviral agents” (priority 2003, published 2005).
Where two headings read alike, the source gives them in different places.

Legend:
[1] = human, in vivo, po
[2] = human, in vivo, po; remark: listed apart in the source
[3] = human, in vivo
[4] = target: HIV-1 RT from the HxB2 clone (RT-SHIV) (Human immunodeficiency virus type 1 group M subtype B, UniProt P04585); details: in vitro tests
RT-SHIV = details: in vitro tests

SMILES	Food Effect [1]	Food Effect [2]	Food Effect [3]	further results
Nc1nc(NC2CC2)c2ncn([C@H]3C=C[C@@H](CO)C3)c2n1 [Abacavir]	None			
Cc1c(O)cccc1C(=O)N[C@@H](CSc1ccccc1)[C@H](O)CN1C[C@H]2CCCC[C@H]2C[C@H]1C(=O)NC(C)(C)C [Nelfinavir, nelfinavir]		Take with food if possible		
CC(C)Nc1cccnc1N1CCN(C(=O)c2cc3cc(NS(C)(=O)=O)ccc3[nH]2)CC1 [Delavirdine]			None	
CC(C)c1nc(CN(C)C(=O)N[C@H](C(=O)N[C@@H](Cc2ccccc2)C[C@H](O)[C@H](Cc2ccccc2)NC(=O)OCc2cncs2)C(C)C)cs1 [Ritonavir, ritonavir]		Take with food if possible		
Cc1ccnc2c1NC(=O)c1cccnc1N2C1CC1 [Nevirapine, nevirapine]			None	inhibition of the RT activity of RT-SHIV [4]: could inhibit; inhibition of replication of RT-SHIV (RT-SHIV): could inhibit
Cc1cn([C@H]2C[C@H](N=[N+]=[N-])[C@@H](CO)O2)c(=O)[nH]c1=O [Zidovudine]	None			
O=C1Nc2ccc(Cl)cc2[C@@](C#CC2CC2)(C(F)(F)F)O1 [Efavirenz]			Avoid taking	
CC(C)CN(C[C@@H](O)[C@H](Cc1ccccc1)NC(=O)O[C@H]1CCOC1)S(=O)(=O)c1ccc(N)cc1 [Amprenavir]		Avoid taking		
Cc1cn([C@H]2C=C[C@@H](CO)O2)c(=O)[nH]c1=O [Stavudine]	None			
Nc1ccn([C@H]2CC[C@@H](CO)O2)c(=O)n1 [Zalcitabine]	None			
